From patent publication US20230105212A1, “BIPHENYL DERIVATIVE INHIBITOR, PREPARATION METHOD THEREFOR AND USE THEREOF” (SHANGHAI HANSOH BIOMEDICAL CO., LTD., priority 2020, published 2023)
Where two headings read alike, the source gives them in different places.

Tests used:
[1] = biological target: T1, PD-L1 protein on the surface of MC38-hPDL1 tumor cells (Homo sapiens, UniProt Q9NZQ7); test: Induction of endocytosis of PD-L1 on the surface of tumor cells (flow cytometry); type: cell-based; settings: 16 hours incubation; for Emax: MC38-hPDL1 cells, read-out: MC38 maximum endocytosis rate; for IC50: inducing endocytosis of PD-L1, MC38-hPDL1 cells, read-out: MC38 IC50
T1 construct: expressed in transfected cells; host or cells: MC38-hPDL1 (mouse colon cancer cells)
Method in brief: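 IC50 comes from nonlinear fits of endocytosis rate, calculated from the loss of surface PE-anti-CD274 flow signal relative to vehicle. Cells were MC38 mouse colon cancer cells engineered to express high human PD-L1. Compound exposure lasted 16 h at 37 °C, 5% CO2.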

[2] = test system: CHO-PDL1/Jurkat-PD1 cell pathway; test: Inhibition of CHO-PDL1/Jurkat-PD1 cell pathway (NFAT luciferase reporter); type: cell-based; settings: for EC50: 6 hours incubation, luciferase signal; for maximal fold induction: relative to the signal value of the non-dosed group, read-out: Maximum induction fold
Method in brief: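 CHO-K1 cells stably expressing PD-L1, plated overnight, then co-cultured with PD-1/NFAT-luc2 Jurkat cells plus compounds in RPMI 1640 with 2% FBS for 6 h at 37 °C. Luminescence read after One-Glo, 10 min at RT. EC50 fitted from the concentration–signal curve; maximum induction fold calculated relative to the non-dosed group.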

human PD-L1 protein = biological target: T2, human PD-L1 protein (Homo sapiens, UniProt Q9NZQ7); test: Thermal shift: melting temperature of PD-L1 protein; type: binding; settings: read-out: ΔTm (° C.)
T2 construct: purchased Acro Biosystems PD1-H5229
Method in brief: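 Human PD-L1 at 2 μM final was tested in […], 150 mM NaCl with SYPRO Orange, heated 25→95 °C at 0.03 °C/s in a PCR melt-curve run. Tm was taken per treatment; ΔTm is the shift relative to DMSO vehicle.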

[3] = compound 10 μM, PD-L1 protein 2 μM, Tm minus DMSO vehicle control

T1 sequence (Q9NZQ7 19-290): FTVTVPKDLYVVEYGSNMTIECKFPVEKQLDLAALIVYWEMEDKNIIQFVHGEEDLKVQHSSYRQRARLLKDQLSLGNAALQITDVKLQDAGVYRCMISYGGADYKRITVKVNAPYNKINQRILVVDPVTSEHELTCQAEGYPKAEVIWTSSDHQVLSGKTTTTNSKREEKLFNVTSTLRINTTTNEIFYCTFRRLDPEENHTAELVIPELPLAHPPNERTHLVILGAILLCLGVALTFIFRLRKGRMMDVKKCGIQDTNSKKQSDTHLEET
T2 sequence (Q9NZQ7 19-238 limits assumed): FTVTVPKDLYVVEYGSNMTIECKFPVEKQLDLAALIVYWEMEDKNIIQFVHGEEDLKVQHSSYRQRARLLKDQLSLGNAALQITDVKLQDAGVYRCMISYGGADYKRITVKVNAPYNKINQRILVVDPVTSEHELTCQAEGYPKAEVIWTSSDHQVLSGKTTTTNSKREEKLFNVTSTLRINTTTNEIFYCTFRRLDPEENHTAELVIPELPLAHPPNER

Compound | Emax [1] [%] | IC50 [1] [nM] | EC50 [2] [nM] | maximal fold induction [2] | ΔTm at 10 µM (human PD-L1 protein) [°C] | ΔTm at 10 µM (human PD-L1 protein; [3]) [°C]
COc1nc(-c2cccc(-c3cccc(NC(=O)c4nc5c(n4C)CCN(C)C5)c3Cl)c2Cl)ccc1CN1CC2(C1)CN(C(C)=O)C2 [Embodiment 123, N-(3′-(5-((6-Acetyl-2,6-diazaspiro[3.3]heptan-2-yl)methyl)-6-methoxypyridin-2-yl)-2,2′-dichloro-[1,1′-biphenyl]-3-yl)-1,5-dimethyl-4,5,6,7-tetrahydro-1H-imidazo[4,5-c]pyridine-2-carboxamide] | 97 | 0.4 | 27 | 3.4 | 16.5 | 
COc1nc(-c2cccc(-c3cccc(NC(=O)c4nc5c(n4C)CCN(C)C5)c3Cl)c2Cl)ccc1CN1CC2(C1)CN(C(=O)C(C)C)C2 [Embodiment 186, N-(2,2′-Dichloro-3′-(5-((6-isobutyryl-2,6-diazaspiro[3.3]heptan-2-yl)methyl)-6-methoxypyridin-2-yl)-[1,1′-biphenyl]-3-yl)-1,5-dimethyl-4,5,6,7-tetrahydro-1H-imidazo[4,5-c]pyridine-2-carboxamide] | 96 | 0.7 | 61 | 3 |  | 21.4
COc1nc(-c2cccc(-c3cccc(NC(=O)c4nc5c(n4C)CCN(C)C5)c3Cl)c2Cl)ccc1CN1CC2(CC(NC(C)=O)C2)C1 [Embodiment 234, N-(3′-(5-((6-Acetylamino-2-azaspiro[3.3]heptan-2-yl)methyl)-6-methoxypyridin-2-yl)-2,2′-dichloro-[1,1′-biphenyl]-3-yl)-1,5-dimethyl-4,5,6,7-tetrahydro-1H-imidazo[4,5-c]pyridine-2-carboxamide] | 97 |  | 78 | 4.7 |  | 15.6
